Reference: patent US9353081B2, “Bicyclic dihydroquinoline-2-one derivatives” (Hoffmann-La Roche Inc., priority 2011, dated 2016)

How the values were obtained:
[1] = target: human CYP11B2 (Homo sapiens (Human), UniProt P19099); experiment: G-402 cellular enzyme assay, human CYP11B2 (aldosterone release, HTRF); assay type: cell-based; details: G-402 cells expressing human CYP11B2; 1 μM Deoxycorticosterone
Excerpt: (§1) Specifically we developed stable G-402 cells expressing ectopically human CYP11B1, human CYP11B2, human CYP11A1, cynomolgus CYP11B1 or cynomolgus CYP11B2 enzyme activity.
(§2) The expression plasmids contains the ORF for either human/cyno CYP11B1 or CYP11B2 under the control of a suitable promoter (CMV-promoter) and a suitable resistance marker (neomycin). Using standard techniques the expression plasmid is transfected into G-402 cells and these cells are then selected for expressing the given resistance markers. Individual cell-clones are then selected and assessed for displaying the desired enzymatic activity using 11-Deoxycorticosterone (Cyp11B2) or 11-Deoxycortisol (Cyp11B1) as a substrate.
(§3) For assaying enzymatic activity, cells were plated onto 96 well plates and incubated for 16 h. An aliquot of the supernatant is then transferred and analyzed for the concentration of the expected product (Aldosterone for CYP11B2; Cortisol for CYP11B1). The concentrations of these steroids can be determined using HTRF assays from CisBio analyzing either Aldosterone or Cortisol.
(§4) Inhibition of the release of produced steroids can be used as a measure of the respective enzyme inhibition by test compounds added during the cellular enzyme assay. The dose dependent inhibition of enzymatic activity by a compound is calculated by means of plotting added inhibitor concentrations x-axes) vs. measured steroid/product level (y-axes). The inhibition is then calculated by fitting the following 4-parameter sigmoidal function (Morgan-Mercer-Flodin (MMF) model) to the raw data points using the least squares method:
(§5) [formula] wherein, A is the maximum y value, B is the EC50 factor determined using XLFit, C is the minimum y value and D is the slope value.
(§6) EC50 values for compounds claimed herein were tested with the G402-based assay system described. Cyp11B2 enzyme activity was tested in presence of 1 μM Deoxycorticosterone and variable amounts of inhibitors; Cyp11B1 enzyme activity was tested in presence of 1 μM Deoxycortisol and variable amounts of inhibitors.

[2] = target: human CYP11B1 (Homo sapiens (Human), UniProt P15538); experiment: G-402 cellular enzyme assay, human CYP11B1 (cortisol release, HTRF); assay type: cell-based; details: G-402 cells expressing human CYP11B1; 1 μM Deoxycortisol
Sequence of human CYP11B1 (P15538 25-503): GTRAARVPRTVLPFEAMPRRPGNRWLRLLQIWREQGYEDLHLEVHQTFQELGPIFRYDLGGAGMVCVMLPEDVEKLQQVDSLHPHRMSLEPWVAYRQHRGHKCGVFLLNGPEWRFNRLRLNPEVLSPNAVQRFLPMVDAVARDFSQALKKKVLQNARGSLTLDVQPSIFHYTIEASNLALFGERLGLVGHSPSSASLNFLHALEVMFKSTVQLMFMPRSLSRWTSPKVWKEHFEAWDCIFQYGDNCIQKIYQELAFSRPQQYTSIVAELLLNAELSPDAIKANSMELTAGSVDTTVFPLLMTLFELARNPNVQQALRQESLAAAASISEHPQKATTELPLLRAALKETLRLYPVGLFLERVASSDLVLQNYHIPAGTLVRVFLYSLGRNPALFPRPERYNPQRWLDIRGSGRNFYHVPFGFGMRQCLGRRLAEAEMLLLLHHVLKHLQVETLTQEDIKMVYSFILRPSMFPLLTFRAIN
Excerpt: as §1, §2, §3, §4, §5, §6

Sequence of human CYP11B2 (P19099 25-503): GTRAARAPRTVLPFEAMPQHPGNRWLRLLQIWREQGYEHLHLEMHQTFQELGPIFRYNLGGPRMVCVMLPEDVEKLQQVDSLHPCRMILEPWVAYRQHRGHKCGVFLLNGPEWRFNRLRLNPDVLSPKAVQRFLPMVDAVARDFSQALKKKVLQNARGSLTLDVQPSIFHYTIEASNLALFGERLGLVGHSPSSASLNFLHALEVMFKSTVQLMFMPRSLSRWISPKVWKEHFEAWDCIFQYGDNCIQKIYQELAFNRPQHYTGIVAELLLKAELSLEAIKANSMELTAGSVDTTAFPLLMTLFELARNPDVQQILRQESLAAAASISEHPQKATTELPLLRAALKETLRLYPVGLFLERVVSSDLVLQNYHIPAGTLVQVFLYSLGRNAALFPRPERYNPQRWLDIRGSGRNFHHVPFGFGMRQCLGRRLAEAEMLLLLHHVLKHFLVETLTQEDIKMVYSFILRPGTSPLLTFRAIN

CCC(=O)N[C@H]1c2cncc(-c3cc4c(cc3F)N(C)C(=O)CC4)c2CC[C@H]1C (single isomer, unassigned) [Example 48, (+)-N-[(7R,8R or 7S,8S)-4-(7-Fluoro-1-methyl-2-oxo-1,2,3,4-tetrahydro-quinolin-6-yl)-7-methyl-5,6,7,8-tetrahydro-isoquinolin-8-yl]-propionamide]
EC50 [1]: 26.1 nM | EC50 [2]: 2880 nM

CCC(=O)N[C@H]1c2cncc(-c3ccc4c(c3)CCC(=O)N4C)c2CC[C@H]1C (single isomer, unassigned) [Example 49, (+)-N-[(7R,8R or 7S,8S)-7-Methyl-4-(1-methyl-2-oxo-1,2,3,4-tetrahydro-quinolin-6-yl)-5,6,7,8-tetrahydro-isoquinolin-8-yl]-propionamide]
EC50 [1]: 44.2 nM | EC50 [2]: 3950 nM

CCC(=O)N[C@@H]1c2cncc(-c3ccc4c(c3)CCC(=O)N4C)c2CC[C@@H]1F (single isomer, unassigned) [Example 51, (−)-N-[(7S,8R or 7R,8S)-7-Fluoro-4-(1-methyl-2-oxo-1,2,3,4-tetrahydro-quinolin-6-yl)-5,6,7,8-tetrahydro-isoquinolin-8-yl]-propionamide]
EC50 [1]: 1470 nM | EC50 [2]: 32300 nM

CCC(=O)N[C@H]1c2cncc(-c3ccc4c(c3)CCC(=O)N4C)c2CC[C@@H]1F (single isomer, unassigned) [Example 52, (+)-N-[(7S,8S or 7R,8R)-7-Fluoro-4-(1-methyl-2-oxo-1,2,3,4-tetrahydro-quinolin-6-yl)-5,6,7,8-tetrahydro-isoquinolin-8-yl]-propionamide]
EC50 [1]: 25.8 nM | EC50 [2]: 1590 nM

CCC(=O)N[C@H]1c2cncc(-c3ccc4c(c3)CCC(=O)N4C)c2CC[C@H]1F (single isomer, unassigned) [Example 53, (+)-N-[(7R,8S or 7S,8R)-7-Fluoro-4-(1-methyl-2-oxo-1,2,3,4-tetrahydro-quinolin-6-yl)-5,6,7,8-tetrahydro-isoquinolin-8-yl]-propionamide]
EC50 [1]: 122 nM | EC50 [2]: 3570 nM

CCC(=O)N[C@H]1c2cncc(-c3cc4c(cc3F)N(C)C(=O)CC4)c2CC[C@@H]1F (single isomer, unassigned) [Example 54, (+)-N-[(7S,8S or 7R,8R)-7-Fluoro-4-(7-fluoro-1-methyl-2-oxo-1,2,3,4-tetrahydro-quinolin-6-yl)-5,6,7,8-tetrahydro-isoquinolin-8-yl]-propionamide]
EC50 [1]: 38.8 nM | EC50 [2]: 2390 nM

CCC(=O)N[C@H]1c2cncc(-c3cc4c(cc3F)N(C)C(=O)CC4)c2CC[C@H]1F (single isomer, unassigned) [Example 55, (+)-N-[(7R,8S or 7S,8R)-7-Fluoro-4-(7-fluoro-1-methyl-2-oxo-1,2,3,4-tetrahydro-quinolin-6-yl)-5,6,7,8-tetrahydro-isoquinolin-8-yl]-propionamide]
EC50 [1]: 158 nM | EC50 [2]: 2760 nM

CCC(=O)N[C@@H]1c2cncc(-c3cc4c(cc3F)N(C)C(=O)CC4)c2CC[C@H]1F (single isomer, unassigned) [Example 56, (−)-N-[(7R,8R or 7S,8S)-7-Fluoro-4-(7-fluoro-1-methyl-2-oxo-1,2,3,4-tetrahydro-quinolin-6-yl)-5,6,7,8-tetrahydro-isoquinolin-8-yl]-propionamide]
EC50 [1]: 2780 nM | EC50 [2]: 14900 nM

CCC(=O)N[C@@H]1c2cncc(-c3cc4c(cc3F)N(C)C(=O)CC4)c2CC[C@@H]1F (single isomer, unassigned) [Example 57, (−)-N-[(7S,8R or 7R,8S)-7-Fluoro-4-(7-fluoro-1-methyl-2-oxo-1,2,3,4-tetrahydro-quinolin-6-yl)-5,6,7,8-tetrahydro-isoquinolin-8-yl]-propionamide]
EC50 [1]: 884 nM | EC50 [2]: 20300 nM

CN1C(=O)CCc2cc(-c3cncc4c3CCCC4O)ccc21 (single isomer, unassigned) [Example 68, (S or R)-6-(8-Hydroxy-5,6,7,8-tetrahydro-isoquinolin-4-yl)-1-methyl-3,4-dihydroquinolin-2(1H)-one]
EC50 [1]: 77.4 nM | EC50 [2]: 1620 nM

CN1C(=O)CCc2cc(-c3cncc4c3CCCC4O)ccc21 (single isomer, unassigned) [Example 69, (R or S)-6-(8-Hydroxy-5,6,7,8-tetrahydro-isoquinolin-4-yl)-1-methyl-3,4-dihydroquinolin-2(1H)-one]
EC50 [1]: 2 nM | EC50 [2]: 54.1 nM

CCC(=O)NC1CCCc2c(-c3ccc4c(c3)CCC(=O)N4C)cncc21 (single isomer, unassigned; (+)) [Example 3, (+)-(S or R)—N-(4-(1-Methyl-2-oxo-1,2,3,4-tetrahydroquinolin-6-yl)-5,6,7,8-tetrahydroisoquinolin-8-yl)propionamide]
EC50 [1]: 14 nM | EC50 [2]: 980 nM

CCS(=O)(=O)NC1CCCc2c(-c3ccc4c(c3)CCC(=O)N4C)cncc21 (single isomer, unassigned; (+)) [Example 6, (+)-(S or R)—N-(4-(1-Methyl-2-oxo-1,2,3,4-tetrahydroquinolin-6-yl)-5,6,7,8-tetrahydroisoquinolin-8-yl)ethanesulfonamide]
EC50 [1]: 48 nM | EC50 [2]: 1750 nM

CCC(=O)NC1CCc2c(-c3ccc4c(c3)CCC(=O)N4C)cncc21 (single isomer, unassigned; (+)) [Example 9, (+)-(S or R)—N-(4-(1-Methyl-2-oxo-1,2,3,4-tetrahydroquinolin-6-yl)-6,7-dihydro-5H-cyclopenta[c]pyridin-7-yl)propionamide]
EC50 [1]: 13 nM | EC50 [2]: 570 nM

C[C@@H](O)C(=O)NC1CCCc2c(-c3ccc4c(c3)CCC(=O)N4C)cncc21 (single isomer, unassigned; (+)) [Example 18, (+)-(2R)-2-Hydroxy-N-((4R or 4S)-4-(1-methyl-2-oxo-1,2,3,4-tetrahydroquinolin-6-yl)-5,6,7,8-tetrahydroisoquinolin-8-yl)propanamide]
EC50 [1]: 27.9 nM | EC50 [2]: 1490 nM

C[C@H](O)C(=O)NC1CCCc2c(-c3ccc4c(c3)CCC(=O)N4C)cncc21 (single isomer, unassigned; (+)) [Example 21, (+)-(2S)-2-hydroxy-N-((4R or 4S)-4-(1-methyl-2-oxo-1,2,3,4-tetrahydroquinolin-6-yl)-5,6,7,8-tetrahydroisoquinolin-8-yl)propanamide]
EC50 [1]: 28 nM | EC50 [2]: 598 nM

CCC(=O)NC1CCc2c(-c3cc4c(cc3F)N(C)C(=O)CC4)cncc21 (single isomer, unassigned; (+)) [Example 24, (+)-(R or S)—N-(4-(7-Fluoro-1-methyl-2-oxo-1,2,3,4-tetrahydroquinolin-6-yl)-6,7-dihydro-5H-cyclopenta[c]pyridin-7-yl)propionamide]
EC50 [1]: 3.8 nM | EC50 [2]: 466 nM

CCS(=O)(=O)NC1CCc2c(-c3cc4c(cc3F)N(C)C(=O)CC4)cncc21 (single isomer, unassigned; (+)) [Example 27, (+)-(R or S)—N-(4-(7-Fluoro-1-methyl-2-oxo-1,2,3,4-tetrahydroquinolin-6-yl)-6,7-dihydro-5H-cyclopenta[c]pyridin-7-yl)ethanesulfonamide]
EC50 [1]: 11.2 nM | EC50 [2]: 1890 nM

CCC(=O)NC1CCCc2c(-c3cc4c(cc3F)N(C)C(=O)CC4)cncc21 (single isomer, unassigned; (+)) [Example 30, (+)-(R or S)—N-[4-(7-fluoro-1-methyl-2-oxo-1,2,3,4-tetrahydro-quinolin-6-yl)-5,6,7,8-tetrahydro-isoquinolin-8-yl]-propionamide]
EC50 [1]: 30 nM | EC50 [2]: 3680 nM

CCS(=O)(=O)NC1CCCc2c(-c3cc4c(cc3F)N(C)C(=O)CC4)cncc21 (single isomer, unassigned; (+)) [Example 32, (+)-(R or S)-Ethanesulfonic acid [4-(7-fluoro-1-methyl-2-oxo-1,2,3,4-tetrahydro-quinolin-6-yl)-5,6,7,8-tetrahydro-isoquinolin-8-yl]-amide]
EC50 [1]: 78.2 nM | EC50 [2]: 4240 nM

CCS(=O)(=O)NC1CCCc2c(-c3cc(Cl)c4c(c3)CCC(=O)N4C)cncc21 (single isomer, unassigned; (+)) [Example 38, (+)-Ethanesulfonic acid [(R or S)-4-(8-chloro-1-methyl-2-oxo-1,2,3,4-tetrahydro-quinolin-6-yl)-5,6,7,8-tetrahydro-isoquinolin-8-yl]-amide]
EC50 [1]: 422 nM | EC50 [2]: 15900 nM

CCC(=O)NC1CCCc2c(-c3cc(Cl)c4c(c3)CCC(=O)N4C)cncc21 (single isomer, unassigned; (+)) [Example 41, (+)-N—[(R or S)-4-(8-Chloro-1-methyl-2-oxo-1,2,3,4-tetrahydro-quinolin-6-yl)-5,6,7,8-tetrahydro-isoquinolin-8-yl]-propionamide]
EC50 [1]: 16.6 nM | EC50 [2]: 3530 nM
